ChEMBL document CHEMBL1201862, “PubChem BioAssay data set” (2004)
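Step 1: Grow cells in 96-well plates. Step 2: Expose to compound for 48 hours at 5 concentrations. Step 3: Interpolate endpoints linearly; if unreached, use highest concentration. GI50: concentration for 50% inhibition of growth.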 Activity calls are given as the source filed them. No stated cut-off is given here; in the data, active = GI50 up to about 1.1 µM and inactive = higher.

Assays:
Experiment in all cases: DTP human tumour cell line panel, 48 h
[1] = test system: CCRF-CEM
[2] = test system: HCC 2998
[3] = test system: HL-60
[4] = test system: HT-29
[5] = test system: K562
[6] = test system: M14
[7] = test system: Malme-3M
[8] = test system: NCI-H23
[9] = test system: NCI-H460
[10] = test system: OVCAR-8
[11] = test system: RXF 393
[12] = test system: SF-295
[13] = test system: SK-OV-3
[14] = test system: SN12C
[15] = test system: SR
[16] = test system: TK-10
[17] = test system: UACC-257

Measured: GI50

C/C(=C1/CCCC2(N=NCC2c2ccccc2)C1=O)c1ccccc1 (stereo not drawn)
inactive: [1] 19.6 µM | [2] 38.2 µM | [3] 8.95 µM | [4] 20.5 µM | [5] 12 µM | [6] 13.8 µM | [7] 21 µM | [8] 16.6 µM | [9] 26.3 µM | [10] 21.3 µM | [11] 25.4 µM | [12] 30.9 µM | [13] 30.7 µM | [14] 40.5 µM | [15] 14 µM | [16] 42.7 µM | [17] 22.1 µM

COC(=O)c1nn(-c2ccccc2)c(=O)cc1N=[N+]=[N-]
inactive: [1] > 100 µM | [2] > 100 µM | [3] > 100 µM | [4] > 100 µM | [5] > 100 µM | [6] > 100 µM | [7] > 100 µM | [8] > 100 µM | [9] > 100 µM | [10] > 100 µM | [11] > 100 µM | [12] > 100 µM | [13] > 100 µM | [14] > 100 µM | [15] > 100 µM | [16] > 100 µM | [17] > 100 µM

CCCC(=O)Nc1ccc(O)c2c1C1CCCCCC21 (stereo not drawn)
inactive: [1] > 100 µM | [3] > 100 µM | [4] > 100 µM | [5] 64.9 µM | [6] > 100 µM | [7] > 100 µM | [8] > 100 µM | [9] > 100 µM | [10] > 100 µM | [11] 39.1 µM | [12] 50.2 µM | [13] > 100 µM | [14] > 100 µM | [15] 82.2 µM | [16] > 100 µM | [17] 46.7 µM

CCOC(=O)C(OCC1CC=CCC1)Sc1ccccc1 (stereo not drawn)
inactive: [1] > 100 µM | [2] > 100 µM | [3] > 100 µM | [4] > 100 µM | [5] > 100 µM | [6] > 100 µM | [7] > 100 µM | [8] > 100 µM | [9] > 100 µM | [10] > 100 µM | [12] > 100 µM | [13] > 100 µM | [14] > 100 µM | [15] 1.77 µM | [16] > 100 µM | [17] > 100 µM

Fc1cccc2c1cc1ccc3cccc4ccc2c1c34
inactive: [1] > 100 µM | [2] > 100 µM | [3] > 100 µM | [4] > 100 µM | [5] > 100 µM | [6] > 100 µM | [7] > 100 µM | [8] > 100 µM | [10] > 100 µM | [11] > 100 µM | [12] > 100 µM | [13] > 100 µM | [14] > 100 µM | [15] 60.5 µM | [16] 60.1 µM | [17] 95.7 µM

COC1[C@H](NC(=O)OC(C)(C)C)C(=O)N1Cc1ccccc1 (stereo partly drawn)
inactive: [1] > 100 µM | [2] > 100 µM | [3] > 100 µM | [4] > 100 µM | [5] > 100 µM | [6] > 100 µM | [7] > 100 µM | [8] > 100 µM | [9] > 100 µM | [10] > 100 µM | [11] > 100 µM | [12] > 100 µM | [13] > 100 µM | [14] > 100 µM | [16] > 100 µM | [17] > 100 µM

CC(C)NC(C)C(C)c1ccccc1 (stereo not drawn)
inactive: [1] > 100 µM | [2] > 100 µM | [4] > 100 µM | [5] > 100 µM | [6] > 100 µM | [7] > 100 µM | [8] > 100 µM | [9] > 100 µM | [10] > 100 µM | [11] > 100 µM | [12] > 100 µM | [13] > 100 µM | [14] > 100 µM | [16] > 100 µM | [17] > 100 µM

C#Cc1ccccc1N1C(=O)C=CC1=O
inactive: [1] > 100 µM | [3] > 100 µM | [4] > 100 µM | [5] > 100 µM | [6] > 100 µM | [7] > 100 µM | [8] > 100 µM | [9] > 100 µM | [10] > 100 µM | [12] > 100 µM | [13] > 100 µM | [14] > 100 µM | [15] > 100 µM | [16] > 100 µM | [17] > 100 µM
